Literature values as cited in PMC139967 (BMC Biochemistry, 2002).

System: calmodulin

In the case of KAHKAATKIQASFRGHITRKKLKC [NM], the “effect of high ionic strength on calmodulin binding” value is given as “reduced by high ionic strength”.
